Measurements taken from PubChem BioAssay (NCI).
“And” between values parts separate entries of the source, which are not always exact repeats. Equal values may be shown once.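 Protocol summary: plate cells (96-well), add compound at 5 concentrations, incubate 48 h, interpolate endpoints linearly. At the GI50, growth is halved. At the TGI there is no net growth.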 Non-standard residues stand in square brackets, D forms with d. Residues, ends and D or L forms follow the SMILES beside them. ξ: configuration not given here. Pen = CC(C)(S)[C@H](N)C(=O)O; ξL = CC(C)CC(N)C(=O)O

How the values were obtained:
Assay in all cases: NCI tumour cell line growth inhibition, 48 h
DMS 114 small cell lung = system: DMS 114 small cell lung
P388/ADR leukemia = system: P388/ADR leukemia
NCI-H23 lung = system: NCI-H23 lung
SNB-78 CNS = system: SNB-78 CNS
P388 leukemia = system: P388 leukemia
M19-MEL melanoma = system: M19-MEL melanoma
UACC-257 melanoma = system: UACC-257 melanoma
DLD-1 colon = system: DLD-1 colon
HOP-18 NSCLC = system: HOP-18 NSCLC
NCI-H226 lung = system: NCI-H226 lung
KM20L2 colon = system: KM20L2 colon
DMS 273 small cell lung = system: DMS 273 small cell lung
XF 498 CNS = system: XF 498 CNS
SN12K1 renal = system: SN12K1 renal
HOP-92 NSCLC = system: HOP-92 NSCLC
HOP-62 NSCLC = system: HOP-62 NSCLC
K-562 leukemia = system: K-562 leukemia
HCC-2998 colon = system: HCC-2998 colon
KM12 colon = system: KM12 colon
RXF-631 renal = system: RXF-631 renal
COLO 205 colon = system: COLO 205 colon
HCT-116 colon = system: HCT-116 colon
TK-10 renal = system: TK-10 renal
SF-295 CNS = system: SF-295 CNS
SF-268 CNS = system: SF-268 CNS
M14 melanoma = system: M14 melanoma
MALME-3M melanoma = system: MALME-3M melanoma
SK-OV-3 ovarian = system: SK-OV-3 ovarian
HT29 colon = system: HT29 colon
SK-MEL-5 melanoma = system: SK-MEL-5 melanoma
CAKI-1 renal = system: CAKI-1 renal
OVCAR-3 ovarian = system: OVCAR-3 ovarian
MOLT-4 leukemia = system: MOLT-4 leukemia
SK-MEL-28 melanoma = system: SK-MEL-28 melanoma
SR leukemia = system: SR leukemia
NCI-H522 lung = system: NCI-H522 lung
LXFL 529 NSCLC = system: LXFL 529 NSCLC
LOX IMVI melanoma = system: LOX IMVI melanoma
HL-60(TB) leukemia = system: HL-60(TB) leukemia
ACHN renal = system: ACHN renal
UO-31 renal = system: UO-31 renal
CCRF-CEM leukemia = system: CCRF-CEM leukemia
A549 NSCLC = system: A549 NSCLC
SNB-75 CNS = system: SNB-75 CNS
A498 renal = system: A498 renal
IGROV1 ovarian = system: IGROV1 ovarian
UACC-62 melanoma = system: UACC-62 melanoma
U251 CNS = system: U251 CNS
SN12C renal = system: SN12C renal
OVCAR-8 ovarian = system: OVCAR-8 ovarian
OVCAR-4 ovarian = system: OVCAR-4 ovarian
786-0 renal = system: 786-0 renal
SNB-19 CNS = system: SNB-19 CNS
SK-MEL-2 melanoma = system: SK-MEL-2 melanoma
RXF 393 renal = system: RXF 393 renal
SF-539 CNS = system: SF-539 CNS
SW-620 colon = system: SW-620 colon
EKVX NSCLC = system: EKVX NSCLC
OVCAR-5 ovarian = system: OVCAR-5 ovarian
PC-3 prostate = system: PC-3 prostate
MDA-N = system: MDA-N
MDA-MB-231 breast = system: MDA-MB-231 breast
BT-549 breast = system: BT-549 breast
HS 578T breast = system: HS 578T breast
DU-145 prostate = system: DU-145 prostate
MDA-MB-435 = system: MDA-MB-435
T-47D breast = system: T-47D breast
RPMI-8226 leukemia = system: RPMI-8226 leukemia
NCI-H460 lung = system: NCI-H460 lung

In the case of `CSCC[C@H](NC(=O)C(CC(C)C)NC(=O)[C@H](Cc1c[nH]cn1)NC(=O)CNC(=O)[C@@H](NC(=O)[C@@H](C)NC(=O)[C@H](Cc1c[nH]c2ccccc12)NC(=O)[C@H](CCC(N)=O)NC(=O)[C@@H](N)CC(N)=O)C(C)(C)SC)C(N)=O` (some centres undefined) (H-NQW[dA][Pen](Me)GH[ξL]M-NH2), the TGI (DMS 114 small cell lung) is reported as > 100 µM, the TGI (P388/ADR leukemia) is reported as > 100 µM and the TGI (NCI-H23 lung) is reported as > 100 µM. For the same compound, the TGI (SNB-78 CNS) was > 100 µM, the TGI (P388 leukemia) was > 100 µM and the TGI (M19-MEL melanoma) was > 100 µM. For the same compound, the TGI (UACC-257 melanoma) was > 100 µM, the TGI (DLD-1 colon) was > 100 µM and the TGI (HOP-18 NSCLC) was > 100 µM. For the same compound, the TGI (NCI-H226 lung) was > 100 µM, the TGI (KM20L2 colon) was > 100 µM and the TGI (DMS 273 small cell lung) was > 100 µM. For the same compound, the TGI (XF 498 CNS) was > 100 µM, the TGI (SN12K1 renal) was > 100 µM and the TGI (HOP-92 NSCLC) was > 100 µM.

`O=C1CN=C(c2ccccc2)c2ccncc2N1` was tested, and the TGI (HOP-62 NSCLC) was > 100 µM, the TGI (K-562 leukemia) was > 100 µM and the TGI (DMS 114 small cell lung) was > 100 µM. For the same compound, the TGI (HCC-2998 colon) was > 100 µM, the TGI (KM12 colon) was 37 µM and the TGI (RXF-631 renal) was > 100 µM. For the same compound, the TGI (COLO 205 colon) was > 100 µM, the TGI (HCT-116 colon) was > 100 µM and the TGI (TK-10 renal) was > 100 µM. The TGI (SF-295 CNS) was > 100 µM, the TGI (SF-268 CNS) was > 100 µM and the TGI (NCI-H23 lung) was > 100 µM. For the same compound, the TGI (M14 melanoma) was > 100 µM, the TGI (MALME-3M melanoma) was > 100 µM and the TGI (SK-OV-3 ovarian) was > 100 µM. The TGI (HT29 colon) was > 100 µM, the TGI (SK-MEL-5 melanoma) was > 100 µM and the TGI (CAKI-1 renal) was > 100 µM. The TGI (SNB-78 CNS) was > 100 µM, the TGI (OVCAR-3 ovarian) was > 100 µM and the TGI (MOLT-4 leukemia) was > 100 µM. The TGI (SK-MEL-28 melanoma) was > 100 µM, the TGI (SR leukemia) was > 100 µM and the TGI (NCI-H522 lung) was > 100 µM. For the same compound, the TGI (LXFL 529 NSCLC) was > 100 µM, the TGI (LOX IMVI melanoma) was > 100 µM and the TGI (HL-60(TB) leukemia) was > 100 µM. The TGI (M19-MEL melanoma) was > 100 µM, the TGI (ACHN renal) was > 100 µM and the TGI (UO-31 renal) was > 100 µM. The TGI (CCRF-CEM leukemia) was > 100 µM, the TGI (A549 NSCLC) was > 100 µM and the TGI (SNB-75 CNS) was > 100 µM. The TGI (A498 renal) was > 100 µM, the TGI (IGROV1 ovarian) was > 100 µM and the TGI (UACC-257 melanoma) was 72.5 µM. The TGI (UACC-62 melanoma) was > 100 µM, the TGI (U251 CNS) was > 100 µM and the TGI (SN12C renal) was > 100 µM. For the same compound, the TGI (OVCAR-8 ovarian) was > 100 µM, the TGI (DLD-1 colon) was > 100 µM and the TGI (OVCAR-4 ovarian) was > 100 µM. The TGI (HOP-18 NSCLC) was > 100 µM, the TGI (786-0 renal) was > 100 µM and the TGI (SNB-19 CNS) was > 100 µM. The TGI (NCI-H226 lung) was > 100 µM, the TGI (KM20L2 colon) was > 100 µM and the TGI (DMS 273 small cell lung) was > 100 µM. For the same compound, the TGI (SK-MEL-2 melanoma) was > 100 µM, the TGI (XF 498 CNS) was > 100 µM and the TGI (RXF 393 renal) was > 100 µM. The TGI (SF-539 CNS) was > 100 µM, the TGI (SW-620 colon) was > 100 µM and the TGI (HOP-92 NSCLC) was > 100 µM. The TGI (EKVX NSCLC) was > 100 µM and the TGI (OVCAR-5 ovarian) was > 100 µM.

With `COc1cccc2c1C(=O)c1c(O)c3c(c(O)c1C2=O)C[C@@](O)(C(=O)CO)C[C@@H]3OC1CC(N2CCOCC2)C(O)C(C)O1` (some centres undefined) the TGI (TK-10 renal) was 2.07 µM, the GI50 (P388/ADR leukemia) was 0.0025 µM and the TGI (PC-3 prostate) was 0.241 µM. For the same compound, the TGI (M14 melanoma) was 0.149 µM, the GI50 (SR leukemia) was 0.00553 µM and the TGI (MDA-N) was 0.175 µM. The GI50 (ACHN renal) was 0.00841 µM, the TGI (ACHN renal) was 0.0736 µM and the TGI (A498 renal) was 0.0232 µM and 0.0486 µM and 0.00651 µM. For the same compound, the TGI (MDA-MB-231 breast) was 0.433 µM, the TGI (BT-549 breast) was 0.392 µM and the TGI (HS 578T breast) was 0.228 µM. The GI50 (786-0 renal) was < 0.0131 µM, the TGI (786-0 renal) was 0.611 µM and the TGI (NCI-H226 lung) was 0.00866 µM and 0.0283 µM and 0.00455 µM. The TGI (DU-145 prostate) was 3.37 µM, the TGI (MDA-MB-435) was 0.195 µM and the TGI (T-47D breast) was 1.06 µM.

`[N-]=[N+]=NC1C(Cl)C(=O)NC(=O)N1[C@H]1C[C@H](O)[C@@H](CO)O1` (some centres undefined) was tested, and the TGI (HOP-62 NSCLC) was > 100 µM, the TGI (K-562 leukemia) was > 100 µM and the TGI (DMS 114 small cell lung) was > 100 µM. The TGI (HCC-2998 colon) was > 100 µM, the TGI (KM12 colon) was > 100 µM and the TGI (RXF-631 renal) was > 100 µM. The TGI (COLO 205 colon) was > 100 µM, the TGI (TK-10 renal) was > 100 µM and the TGI (SF-295 CNS) was > 100 µM. The GI50 (SF-268 CNS) was 94 µM, the TGI (SF-268 CNS) was > 100 µM and the TGI (NCI-H23 lung) was > 100 µM. For the same compound, the TGI (M14 melanoma) was > 100 µM, the TGI (MALME-3M melanoma) was > 100 µM and the TGI (SK-OV-3 ovarian) was > 100 µM. For the same compound, the TGI (HT29 colon) was > 100 µM, the GI50 (SK-MEL-5 melanoma) was 12.3 µM and the TGI (SK-MEL-5 melanoma) was > 100 µM. For the same compound, the TGI (CAKI-1 renal) was > 100 µM, the TGI (SNB-78 CNS) was > 100 µM and the TGI (OVCAR-3 ovarian) was > 100 µM. The TGI (MOLT-4 leukemia) was > 100 µM, the TGI (SK-MEL-28 melanoma) was > 100 µM and the GI50 (NCI-H522 lung) was 5.31 µM. The TGI (NCI-H522 lung) was 36.2 µM, the TGI (LXFL 529 NSCLC) was > 100 µM and the TGI (LOX IMVI melanoma) was > 100 µM. The TGI (HL-60(TB) leukemia) was > 100 µM, the GI50 (M19-MEL melanoma) was 52.1 µM and the TGI (M19-MEL melanoma) was > 100 µM. The TGI (ACHN renal) was > 100 µM, the TGI (UO-31 renal) was > 100 µM and the GI50 (CCRF-CEM leukemia) was 26.3 µM. For the same compound, the TGI (CCRF-CEM leukemia) was > 100 µM, the TGI (A549 NSCLC) was > 100 µM and the TGI (SNB-75 CNS) was > 100 µM. The TGI (A498 renal) was > 100 µM, the TGI (IGROV1 ovarian) was > 100 µM and the TGI (UACC-257 melanoma) was > 100 µM. For the same compound, the TGI (UACC-62 melanoma) was > 100 µM, the TGI (U251 CNS) was > 100 µM and the TGI (SN12C renal) was > 100 µM. The TGI (OVCAR-8 ovarian) was > 100 µM, the TGI (DLD-1 colon) was > 100 µM and the TGI (OVCAR-4 ovarian) was > 100 µM. The TGI (786-0 renal) was > 100 µM, the TGI (SNB-19 CNS) was > 100 µM and the TGI (KM20L2 colon) was > 100 µM. The TGI (DMS 273 small cell lung) was > 100 µM, the TGI (SK-MEL-2 melanoma) was > 100 µM and the GI50 (RPMI-8226 leukemia) was 71.9 µM. The TGI (RPMI-8226 leukemia) was > 100 µM, the TGI (XF 498 CNS) was > 100 µM and the TGI (RXF 393 renal) was > 100 µM. The TGI (SF-539 CNS) was > 100 µM, the TGI (SW-620 colon) was > 100 µM and the TGI (HOP-92 NSCLC) was > 100 µM. The TGI (NCI-H460 lung) was > 100 µM, the TGI (EKVX NSCLC) was > 100 µM and the TGI (OVCAR-5 ovarian) was > 100 µM.
